Assay results published in patent US20260285850A1, “SUBSTITUTED OXAZOLIDINONES AND IMIDAZOLINONES AS HERBICIDES” (FMC CORPORATION, priority 2023, published 2026).

Experiments:
Type in all cases: in vivo
[1] = test system: barnyardgrass (Echinochloa crus-galli); assay: Test A preemergence soil spray, visual injury rating 0-100; settings: 10 days, 0 = no effect, 100 = complete control; for Barnyardgrass plant response rating (0-100): 31 g ai/ha; for Barnyardgrass plant response rating (0 to 100 scale): 125 g ai/ha
Summary of the method: (§1)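 Seeds sown in loam-sand blend got a preemergence directed soil spray, or emerged plants (2-10 cm, one- to two-leaf) got a postemergence spray, of compound in non-phytotoxic solvent with surfactant. After 10 days in greenhouse, injury rated visually versus untreated controls on a 0 (no effect) to 100 (complete control) scale.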

[2] = test system: blackgrass (Alopecurus myosuroides); assay: as above; settings: 10 days, 0 = no effect, 100 = complete control; for Blackgrass plant response rating (0-100): 31 g ai/ha; for Blackgrass plant response rating (0 to 100 scale): 125 g ai/ha
Summary of the method: as §1

corn (Zea mays) [3] = assay: as above; settings: 10 days, 0 = no effect, 100 = complete control; for Corn plant response rating (0-100): 31 g ai/ha; for Corn plant response rating (0 to 100 scale): 125 g ai/ha
Summary of the method: as §1

kochia (Bassia scoparia) [4] = assay: as above; settings: 10 days, 0 = no effect, 100 = complete control; for Kochia plant response rating (0-100): 31 g ai/ha; for Kochia plant response rating (0 to 100 scale): 125 g ai/ha
Summary of the method: as §1

[5] = test system: oat, wild (wild oat, Avena fatua); assay: as above; settings: 10 days, 0 = no effect, 100 = complete control; for Oat, Wild plant response rating (0-100): 31 g ai/ha; for Oat, Wild plant response rating (0 to 100 scale): 125 g ai/ha
Summary of the method: as §1

[6] = test system: palmer (palmer amaranth, palmer pigweed, Amaranthus palmeri); assay: as above; settings: 10 days, 0 = no effect, 100 = complete control; for Amaranth, Palmer plant response rating (0-100): 31 g ai/ha; for Amaranth, Palmer plant response rating (0 to 100 scale): 125 g ai/ha
Summary of the method: as §1

[7] = test system: ragweed (common ragweed, Ambrosia artemisiifolia); assay: as above; settings: 10 days, 0 = no effect, 100 = complete control; for Ragweed plant response rating (0-100): 31 g ai/ha; for Ragweed plant response rating (0 to 100 scale): 125 g ai/ha
Summary of the method: as §1

[8] = test system: ryegrass, Italian (italian ryegrass, Lolium multiflorum); assay: as above; settings: 10 days, 0 = no effect, 100 = complete control; for Ryegrass, Italian plant response rating (0-100): 31 g ai/ha; for Ryegrass, Italian plant response rating (0 to 100 scale): 125 g ai/ha
Summary of the method: as §1

soybean (Glycine max) [9] = assay: as above; settings: 10 days, 0 = no effect, 100 = complete control; for Soybean plant response rating (0-100): 31 g ai/ha; for Soybean plant response rating (0 to 100 scale): 125 g ai/ha
Summary of the method: as §1

[10] = test system: wheat (Triticum aestivum); assay: as above; settings: 10 days, 0 = no effect, 100 = complete control; for Wheat plant response rating (0-100): 31 g ai/ha; for Wheat plant response rating (0 to 100 scale): 125 g ai/ha
Summary of the method: as §1

[11] = test system: barnyardgrass (Echinochloa crus-galli); assay: Test A postemergence application, visual injury rating 0-100; settings: for Barnyardgrass plant response rating (0 to 100 scale): Postemergence
Summary of the method: as §1

[12] = test system: blackgrass (Alopecurus myosuroides); assay: as above; settings: for Blackgrass plant response rating (0 to 100 scale): Postemergence
Summary of the method: as §1

corn (Zea mays) [13] = assay: as above; settings: for Corn plant response rating (0 to 100 scale): Postemergence
Summary of the method: as §1

[14] = test system: galium (catchweed bedstraw, Galium aparine); assay: as above; settings: for Galium plant response rating (0 to 100 scale): Postemergence
Summary of the method: as §1

[15] = test system: horseweed (Erigeron canadensis); assay: as above; settings: for Horseweed plant response rating (0 to 100 scale): Postemergence
Summary of the method: as §1

kochia (Bassia scoparia) [16] = assay: as above; settings: for Kochia plant response rating (0 to 100 scale): Postemergence
Summary of the method: as §1

[17] = test system: oat, wild (wild oat, Avena fatua); assay: as above; settings: for Oat, Wild plant response rating (0 to 100 scale): Postemergence
Summary of the method: as §1

[18] = test system: palmer (palmer amaranth, palmer pigweed, Amaranthus palmeri); assay: as above; settings: for Amaranth, Palmer / Pigweed, Palmer plant response rating (0 to 100 scale): Postemergence
Summary of the method: as §1

[19] = test system: ragweed (common ragweed, Ambrosia artemisiifolia); assay: as above; settings: for Ragweed plant response rating (0 to 100 scale): Postemergence
Summary of the method: as §1

[20] = test system: ryegrass, Italian (italian ryegrass, Lolium multiflorum); assay: as above; settings: for Ryegrass, Italian plant response rating (0 to 100 scale): Postemergence
Summary of the method: as §1

soybean (Glycine max) [21] = assay: as above; settings: for Soybean plant response rating (0 to 100 scale): Postemergence
Summary of the method: as §1

[22] = test system: wheat (Triticum aestivum); assay: as above; settings: for Wheat plant response rating (0 to 100 scale): Postemergence
Summary of the method: as §1

[23] = test system: barnyardgrass (Echinochloa crusgalli); assay: Test B flooded paddy test, visual plant response rating 0-100; settings: 250 g ai/ha, Flood, applied to paddy water, evaluated after 13 days
Summary of the method: (§2)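 Visual scores versus untreated controls were recorded 13 days after treatment of greenhouse-held plants. At the 2-leaf stage, pots were flooded 3 cm above the soil surface and compounds added straight to the water.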

[24] = test system: ducksalad (Heteranthera limosa); assay: as above; settings: 250 g ai/ha, Flood, applied to paddy water, evaluated after 13 days
Summary of the method: as §2

rice (Oryza sativa) = assay: as above; settings: 250 g ai/ha, Flood, applied to paddy water, evaluated after 13 days
Summary of the method: as §2

[25] = test system: sedge, umbrella (small-flower umbrella sedge, Cyperus difformis); assay: as above; settings: 250 g ai/ha, Flood, applied to paddy water, evaluated after 13 days
Summary of the method: as §2

[26] = 31 g ai/ha, greenhouse 10 days, 0 no effect, 100 complete control
[27] = 125 g ai/ha, 10 days, 0 is no effect, 100 is complete control
[28] = 31 g ai/ha, postemergence, 10 days, 0 = no effect, 100 = complete control

CSCCOC(=O)C1C=CC(NC(=O)C2(C)CN(c3cc(Cl)cc(Cl)c3)C(=O)O2)C1 (stereo not drawn) [Compound 69]
60: Barnyardgrass plant response rating (0-100) [1] | Blackgrass plant response rating (0 to 100 scale) [2] | Corn plant response rating (0 to 100 scale) (corn (Zea mays) [3]) | Oat, Wild plant response rating (0 to 100 scale) [5] | Soybean plant response rating (0 to 100 scale) (soybean (Glycine max) [21]; [26]) | Plant response rating, Ducksalad (0 to 100 scale, 0 is no effect and 100 is complete control) [24]
50: Soybean plant response rating (0 to 100 scale) (soybean (Glycine max) [9]) | Ragweed plant response rating (0 to 100 scale) [19, 26] | Plant response rating, Rice (0 to 100 scale, 0 is no effect and 100 is complete control) (rice (Oryza sativa))
20: Ragweed plant response rating (0 to 100 scale) [7] | Soybean plant response rating (0-100) (soybean (Glycine max) [9])
70: Wheat plant response rating (0 to 100 scale) [10] | Horseweed plant response rating (0 to 100 scale) [15, 26] | Ragweed plant response rating (0 to 100 scale) [19, 27] | Ryegrass, Italian plant response rating (0 to 100 scale) [20, 26] | Ryegrass, Italian plant response rating (0 to 100 scale) [20, 27]
95: Plant response rating, Sedge, Umbrella (0 to 100 scale, 0 is no effect and 100 is complete control) [25]
40: Blackgrass plant response rating (0-100) [2] | Kochia plant response rating (0-100) (kochia (Bassia scoparia) [4])
85: Plant response rating, Barnyardgrass (0 to 100 scale, 0 is no effect and 100 is complete control) [23]
80: Ryegrass, Italian plant response rating (0 to 100 scale) [8] | Galium plant response rating (0 to 100 scale) [14, 26] | Galium plant response rating (0 to 100 scale) [14, 27] | Horseweed plant response rating (0 to 100 scale) [15, 27] | Kochia plant response rating (0 to 100 scale) (kochia (Bassia scoparia) [16]; [26]) | Kochia plant response rating (0 to 100 scale) (kochia (Bassia scoparia) [16]; [27])
100: Corn plant response rating (0 to 100 scale) (corn (Zea mays) [13]; [26]) | Corn plant response rating (0 to 100 scale) (corn (Zea mays) [13]; [27])
90: Barnyardgrass plant response rating (0 to 100 scale) [1] | Kochia plant response rating (0 to 100 scale) (kochia (Bassia scoparia) [4]) | Amaranth, Palmer plant response rating (0-100) [6] | Amaranth, Palmer plant response rating (0 to 100 scale) [6] | Barnyardgrass plant response rating (0 to 100 scale) [11, 26] | Barnyardgrass plant response rating (0 to 100 scale) [11, 27] | Blackgrass plant response rating (0 to 100 scale) [12, 26] | Blackgrass plant response rating (0 to 100 scale) [12, 27] | Oat, Wild plant response rating (0 to 100 scale) [17, 26] | Oat, Wild plant response rating (0 to 100 scale) [17, 27] | Amaranth, Palmer / Pigweed, Palmer plant response rating (0 to 100 scale) [18, 26] | Amaranth, Palmer / Pigweed, Palmer plant response rating (0 to 100 scale) [18, 27] | Soybean plant response rating (0 to 100 scale) (soybean (Glycine max) [21]; [27]) | Wheat plant response rating (0 to 100 scale) [22, 26] | Wheat plant response rating (0 to 100 scale) [22, 27]
30: Ryegrass, Italian plant response rating (0-100) [8] | Wheat plant response rating (0-100) [10]
0: Corn plant response rating (0-100) (corn (Zea mays) [3]) | Oat, Wild plant response rating (0-100) [5] | Ragweed plant response rating (0-100) [7]

COC(=O)C1=CCC(NC(=O)C2(C)CN(c3cc(Cl)cc(Cl)c3)C(=O)O2)C1 (stereo not drawn) [Compound 58]
80: Barnyardgrass plant response rating (0-100) [1] | Amaranth, Palmer plant response rating (0-100) [6] | Ryegrass, Italian plant response rating (0 to 100 scale) [8] | Horseweed plant response rating (0-100) [15, 28] | Kochia plant response rating (0-100) (kochia (Bassia scoparia) [16]; [28])
60: Corn plant response rating (0 to 100 scale) (corn (Zea mays) [3]) | Ryegrass, Italian plant response rating (0-100) [8] | Wheat plant response rating (0-100) [22, 28] | Plant response rating, Barnyardgrass (0 to 100 scale, 0 is no effect and 100 is complete control) [23]
90: Barnyardgrass plant response rating (0 to 100 scale) [1] | Wheat plant response rating (0 to 100 scale) [10] | Barnyardgrass plant response rating (0-100) [11, 28] | Barnyardgrass plant response rating (0 to 100 scale) [11, 27] | Blackgrass plant response rating (0-100) [12, 28] | Galium plant response rating (0-100) [14, 28] | Galium plant response rating (0 to 100 scale) [14, 27] | Horseweed plant response rating (0 to 100 scale) [15, 27] | Kochia plant response rating (0 to 100 scale) (kochia (Bassia scoparia) [16]; [27]) | Amaranth, Palmer plant response rating (0-100) [18, 28] | Ryegrass, Italian plant response rating (0-100) [20, 28] | Ryegrass, Italian plant response rating (0 to 100 scale) [20, 27] | Soybean plant response rating (0-100) (soybean (Glycine max) [21]; [28]) | Soybean plant response rating (0 to 100 scale) (soybean (Glycine max) [21]; [27]) | Wheat plant response rating (0 to 100 scale) [22, 27]
0: Ragweed plant response rating (0-100) [7]
10: Blackgrass plant response rating (0-100) [2] | Corn plant response rating (0-100) (corn (Zea mays) [3]) | Kochia plant response rating (0-100) (kochia (Bassia scoparia) [4]) | Oat, Wild plant response rating (0-100) [5]
95: Plant response rating, Ducksalad (0 to 100 scale, 0 is no effect and 100 is complete control) [24]
30: Blackgrass plant response rating (0 to 100 scale) [2] | Oat, Wild plant response rating (0 to 100 scale) [5] | Ragweed plant response rating (0 to 100 scale) [7] | Oat, Wild plant response rating (0-100) [17, 28] | Ragweed plant response rating (0-100) [19, 28]
50: Soybean plant response rating (0 to 100 scale) (soybean (Glycine max) [9])
98: Plant response rating, Sedge, Umbrella (0 to 100 scale, 0 is no effect and 100 is complete control) [25]
20: Soybean plant response rating (0-100) (soybean (Glycine max) [9]) | Wheat plant response rating (0-100) [10]
100: Amaranth, Palmer plant response rating (0 to 100 scale) [6] | Blackgrass plant response rating (0 to 100 scale) [12, 27] | Corn plant response rating (0-100) (corn (Zea mays) [13]; [28]) | Corn plant response rating (0 to 100 scale) (corn (Zea mays) [13]; [27]) | Amaranth, Palmer / Pigweed, Palmer plant response rating (0 to 100 scale) [18, 27]
70: Kochia plant response rating (0 to 100 scale) (kochia (Bassia scoparia) [4]) | Oat, Wild plant response rating (0 to 100 scale) [17, 27] | Ragweed plant response rating (0 to 100 scale) [19, 27] | Plant response rating, Rice (0 to 100 scale, 0 is no effect and 100 is complete control) (rice (Oryza sativa))
